System: tumor tissues (breast)
Test: Immunohistopathology of tumor tissue after treatment
Format: in vivo
Conditions: 48 hours post treatment, FIG. 7
Text: After treatment with either cisplatin or the platinum peptide complex, tumor tissues (breast) were dissected and embedded in […]. The tumor tissue was fixed in […] and stained for cellular target expression.

Row | Compound | histopathological changes
1 | [NH2][Pt]([NH2])([Cl])[Cl] [CDDP, cisplatin] | marked necrosis and apoptosis
2 | cis-1,2-DACH—Pt (II)-poly(glutamic/aspartic acid) [PDDP] | marked necrosis and apoptosis

From patent US20030109432A1, “Anticancer polypeptide-metal complexes and compositions, methods of making, and methods of using same” (priority 2001, published 2003)
